Like-named read-outs stand apart in the source and are kept apart here.
Legend:
[1] = tested on: histiocytic lymphoma cell line U937; assay: XTT cell survival assay and combination index analysis, U937; type: cell-based; details: Homo sapiens, U-937
Protocol: (§1) Cell cultures were performed with the triple negative breast cancer cell line MDA-MB-231, the histiocytic lymphoma cell line U937 and the non-tumor mammary cell line MCF-10A. Cells were grown according to the supplier's instructions. Cell lines were maintained at 37°C in a humidified atmosphere at 5% CO2, except the MDA-MB-231 cell line which was maintained at 0% CO2.
(§2) In a first step, the characterization of the effect of drugs monotherapy on cell survival (tumour and non-tumour cells) was performed. MDA-MB-231 (5.10^3 cells/well), MCF-10A (5.10^3 cells/well) and U937 (2.10^4 cells/well) were seeded in 96 well-plates and incubated 24 hours at +37°C before drug addition with increasing concentrations for 4 to 7 days. Following drug exposure, cell survival was measured using the XTT assay (Sigma Aldrich). Briefly, the XTT solution was added directly to each well containing cell culture and the cells incubated for 4 to 24 hours at 37°C before reading the absorbance at 490 nm and 690 nm using a microplate reader (BMG Fluostar, Galaxy). Cell survival was calculated as the ratio of living treated cells to living mock-treated cells. The IC50 (which represents the dose at which 50% of the cells are viable) was calculated by a non-linear regression model using GraphPad Prism software (version 5.04) by plotting the percentage viability against the Log of the drug concentration on each cell line.

[2] = tested on: triple negative breast cancer cell line MDA-MB-231; assay: XTT cell survival assay and combination index analysis, MDA-MB-231; type: cell-based; details: Homo sapiens
Protocol: Cells were grown according to the supplier's instructions.
In a first step, the characterization of the effect of drugs monotherapy on cell survival (tumour and non-tumour cells) was performed. […] Following drug exposure, cell survival was measured using the XTT assay (Sigma Aldrich). […] Cell survival was calculated as the ratio of living treated cells to living mock-treated cells.
(§3) In a second step, analysis and quantification of the drug combination efficacy were performed. Cells were seeded in 96-well plates at the appropriate densities and treated with AsiDNA and/or the HDAC inhibitor (HDACi) belinostat simultaneously during 4 to 7days.
Combination efficacy was evaluated by "the combination index (CI)" which was determined using the CalcuSyn software tool based on the Chou Talalay method). […] Note that we define synergism as a more than expected additive effect, and antagonism as a less than expected additive effect.
In a first step, the characterization of the effect of drugs monotherapy on cell survival (tumour and non-tumour cells) was performed. […] Following drug exposure, cell survival was measured using the XTT assay (Sigma Aldrich). […] Cell survival was calculated as the ratio of living treated cells to living mock-treated cells. […] In a second step, analysis and quantification of the drug combination efficacy were performed. […] Cell survival was measured using the XTT assay (see above). Combination efficacy was evaluated by "the combination index (CI)" which was determined using the CalcuSyn software tool based on the Chou Talalay method. […]
In a first step, characterization of the effect of drugs monotherapy on cell survival (tumour and non-tumour cells) was performed. […] Following drug exposure, cell survival was measured using the XTT assay (Sigma Aldrich). […] Cell survival was calculated as the ratio of living treated cells to living mock-treated cells. […] In a second step, analysis and quantification of the drug combination efficacy were performed. […] Cell survival was measured using the XTT assay (see above). […]

[3] = tested on: non-tumor mammary cell line MCF-10A; assay: XTT cell survival assay, non-tumor cells MCF-10A; details: same drug doses as MDA-MB-231, 7 days after treatment, result in words
Protocol: as §1, §2, §3
In a first step, the characterization of the effect of drugs monotherapy on cell survival (tumour and non-tumour cells) was performed. MDA-MB-231 (5.10^3 cells/well), MCF-10A (5.10^3 cells/well) and U937 (2.10^4 cells/well) were seeded in 96 well-plates and incubated 24 hours at +37°C before drug addition with increasing concentrations for 4 to 7 days. Following drug exposure, cell survival was measured using the XTT assay (Sigma Aldrich). Briefly, the XTT solution was added directly to each well containing cell culture and the cells incubated for 4 to 24 hours at 37°C before reading the absorbance at 490 nm and 690 nm using a microplate reader (BMG Fluostar, Galaxy). Cell survival was calculated as the ratio of living treated cells to living mock-treated cells. […] In a second step, analysis and quantification of the drug combination efficacy were performed. […] Cell survival was measured using the XTT assay (see above). Combination efficacy was evaluated by "the combination index (CI)" which was determined using the CalcuSyn software tool based on the Chou Talalay method. […]

[4] = U937, XTT assay, monotherapy, increasing concentrations for 4 to 7 days, dose at which 50% of the cells are viable, read-out: IC50
[5] = XTT assay, monotherapy, increasing concentrations for 4 to 7 days, dose at which 50% of the cells are viable, read-out: IC50

Row | SMILES | IC50 [1, 4] | IC50 [2, 5] | cell survival of non-tumor cells (sensitivity) [3] | IC50 [1] | IC50 [2]
1 | Nc1ccccc1NC(=O)c1ccc(CNC(=O)OCc2cccnc2)cc1 [Entinostat] | 10 nM | 100 nM | insensitive | – | –
2 | C/C=C1\NC(=O)[C@H]2CSSCC/C=C/[C@H](CC(=O)N[C@H](C(C)C)C(=O)N2)OC(=O)[C@H](C(C)C)NC1=O [Romidepsin] | – | – | showed a sensitivity | 1 nM | 0.4 nM
3 | O=C(CCCCCCC(=O)Nc1ccccc1)NO [Vorinostat, N-hydroxy-N'-phenyloctanediamide] | – | – | showed a sensitivity | – | –
4 | O=C(/C=C/c1cccc(S(=O)(=O)Nc2ccccc2)c1)NO [Belinostat, (2E)-N-hydroxy-3-[3-(phenylsulfamoyl)phenyl]prop-2-enamide] | 250 nM | 250 nM | insensitive | – | –

Reference: patent EP3461488A1, “COMBINATION OF A DBAIT MOLECULE AND A HDAC INHIBITOR FOR TREATING CANCER” (ONXEO, priority 2017, dated 2019)
